Measured values as given in publication PMC11099041, “Tissue distribution and retention drives efficacy of rapidly clearing VHL-based PROTACs” (Communications Medicine, 2024).
Read-outs that look alike come from different tables or passages of the source.

Test: Mouse pharmacokinetics in CD-1 mice (blood, kidney, liver, lung)
Format: in vivo
Conditions: for Tmax: mouse, dose = c0, matrix = c1 of the line
Experimental: For the PK study, a total of 42 male CD-1 mice weighing ~20-35 g were acquired from Lingchang/Vital River Laboratory Animal Co., Ltd. (Shanghai/Beijing, P.R. China) and divided into 2 treatment groups. […] was dosed with one low dose (1 mg/kg) and one high dose group (20 mg/kg). For the low-dose groups, nine animals were required for organ quantification with termination at 24 hours. For the high-dose groups, 12 animals were required for organ quantification with termination at 48 hours. The animal was administered either 1 mg/kg or 20 mg/kg of formulation solution (10% HP-β-CD in acetate buffer at pH 4.0) by IV bolus through the left lateral tail vein injection. […] Blood samples were placed on wet ice, mixed, then frozen and stored in a freezer set to -60 °C or lower until analysis. After the blood samples were collected at the terminal time points, the animals were sacrificed, and the liver, lung and kidney were harvested. The tissues were rinsed in cold water and then blotted on filter papers, weighed and homogenized using pre-cooled water at the ratio of 1:4. The tissue homogenate samples were kept at -70 °C until analysis. […] Working standard solutions were spiked into 25 μL of blank matrix on the sample plate. […] The supernatant (20 μL) was transferred into the MS injection plate, then diluted with water before injection for LC-MS/MS analysis. The concentrations of […] were quantified by an LC-MS/MS method. The LC-MS/MS system was a Waters Acquity UPLC System (Milford, MA) coupled to a Sciex Triple Quad 6500 Plus mass spectrometer (AB Sciex, Foster City, CA). The aqueous mobile phase for the analysis was 0.1% formic acid and 2 mM ammonium formate in water/ACN (v:v, 95:5) (A), and the organic mobile phase was 0.1% formic acid and 2 mM ammonium formate in ACN/water (v:v, 95:5) (B). […] Column temperature was set at 50 °C. […] The flow rate was set at 0.7 mL/min. […] The lower limit of quantitation in all matrices was 5.1 ng/mL. The mean time concentration profile was generated for each group, and an overall AUC was then calculated with these sparse samples of rats and mice. […] The following parameters were estimated whenever possible: C0, Back-extrapolated concentration at time 0; Cmax, Maximum observed concentration; Tmax, Time of maximum observed concentration; AUC0-t, Area under the concentration-time curve from hour 0 to the last measurable concentration, estimated by the linear trapezoidal rule; AUC0-336, Area under the concentration-time curve from hour 0 to hour 336, estimated by the linear trapezoidal rule; DN AUC0-336, Dose normalized AUC0-336, calculated as AUC0-336/dose level; […] AUC0-∞ = AUC0-t + Ct/λz, where Ct is the last measurable concentration and λz is the elimination rate constant; t1/2, Elimination half-life, determined by ln(2)/λz; CL, Clearance, calculated as dose/AUC0-inf; Vd, Volume of distribution based on the terminal phase, calculated as: dose/(λz × AUC0-∞) Nominal doses and sampling times were used. […] Embedded zeros were excluded from kinetic analysis.

[1] = male, CD-1, mouse, in vivo, 1 mg/kg, Kidney, 1 mg/kg IV, individual animals, read-out: Concentration (µM) from 1 mg/kg Dosing Kidney
[2] = male, CD-1, mouse, in vivo, 1 mg/kg, Kidney, 1 mg/kg IV, mean, read-out: Concentration (µM) from 1 mg/kg Dosing Kidney
[3] = male, CD-1, mouse, in vivo, 1 mg/kg, Liver, 1 mg/kg IV, individual animals, read-out: Concentration (µM) from 1 mg/kg Dosing Liver
[4] = male, CD-1, mouse, in vivo, 1 mg/kg, Liver, 1 mg/kg IV, mean, read-out: Concentration (µM) from 1 mg/kg Dosing Liver
[5] = male, CD-1, mouse, in vivo, 1 mg/kg, Lung, 1 mg/kg IV, individual animals, read-out: Concentration (µM) from 1 mg/kg Dosing Lung
[6] = male, CD-1, mouse, in vivo, 1 mg/kg, Lung, 1 mg/kg IV, mean, read-out: Concentration (µM) from 1 mg/kg Dosing Lung
[7] = male, CD-1, mouse, in vivo, 20 mg/kg, Blood, 20 mg/kg IV, individual animals, read-out: Concentration (µM) from 20 mg/kg Dosing Blood
[8] = male, CD-1, mouse, in vivo, 20 mg/kg, Blood, 20 mg/kg IV, mean, read-out: Concentration (µM) from 20 mg/kg Dosing Blood
[9] = male, CD-1, mouse, in vivo, 20 mg/kg, Kidney, 20 mg/kg IV, individual animals, read-out: Concentration (µM) from 20 mg/kg Dosing Kidney
[10] = male, CD-1, mouse, in vivo, 20 mg/kg, Kidney, 20 mg/kg IV, mean, read-out: Concentration (µM) from 20 mg/kg Dosing Kidney
[11] = male, CD-1, mouse, in vivo, 20 mg/kg, Liver, 20 mg/kg IV, mean, read-out: Concentration (µM) from 20 mg/kg Dosing Liver
[12] = male, CD-1, mouse, in vivo, 20 mg/kg, Lung, 20 mg/kg IV, individual animals, read-out: Concentration (µM) from 20 mg/kg Dosing Lung
[13] = male, CD-1, mouse, in vivo, 20 mg/kg, Lung, 20 mg/kg IV, mean, read-out: Concentration (µM) from 20 mg/kg Dosing Lung
[14] = male, CD-1, mouse, kidney, intravenous, 20 mg/kg, Kidney, 20 mg/kg IV, individual animals, read-out: Concentration (µM) from 20 mg/kg Dosing Kidney
[15] = male, CD-1, mouse, kidney, intravenous, 20 mg/kg, Kidney, 20 mg/kg IV, mean, read-out: Concentration (µM) from 20 mg/kg Dosing Kidney
[16] = male, CD-1, mouse, liver, intravenous, 20 mg/kg, Liver, 20 mg/kg IV, mean, read-out: Concentration (µM) from 20 mg/kg Dosing Liver
[17] = male, CD-1, mouse, lung, intravenous, 20 mg/kg, Lung, 20 mg/kg IV, mean, read-out: Concentration (µM) from 20 mg/kg Dosing Lung

Which results are given for `Cc1ncsc1-c1ccc(C(C)NC(=O)C2CC(O)CN2C(=O)C(c2cc(N3CCC(CN4CCC(OC5CC(Oc6cc(N7C8CCC7CN(c7cc(-c9ccccc9O)nnc7N)C8)ccn6)C5)CC4)CC3)no2)C(C)C)cc1` (centres unmarked) [A947]?
concentration at 4 h (male, CD-1, mouse, in vivo, 1 mg/kg, Blood, 1 mg/kg IV, mean, read-out: Concentration (µM) from 1 mg/kg Dosing Blood): 0.005 µM; concentration at 4 h [1]: 0.753 µM; concentration at 4 h [2]: 0.561 µM; concentration at 8 h [1]: 0.282 µM; concentration at 8 h [2]: 0.32 µM; concentration at 24 h [1]: 0.019 µM; concentration at 24 h [2]: 0.023 µM; concentration at 4 h [3]: 0.071 µM; concentration at 4 h [4]: 0.079 µM; concentration at 8 h [3]: 0.057 µM; concentration at 8 h [4]: 0.045 µM; concentration at 24 h (male, CD-1, mouse, in vivo, 1 mg/kg, Liver, 1 mg/kg IV, individual animals, BLOQ <5.1 ng/mL, read-out: Concentration (µM) from 1 mg/kg Dosing Liver): 0.006 µM; concentration at 24 h [4]: 0.006 µM; concentration at 4 h [5]: 0.098 µM; concentration at 4 h [6]: 0.094 µM; concentration at 8 h [5]: 0.048 µM; concentration at 8 h [6]: 0.062 µM; concentration at 24 h [5]: 0.014 µM; concentration at 24 h [6]: 0.014 µM; concentration at 0.083 h [7]: 13.3 µM; concentration at 0.083 h [8]: 11.1 µM; concentration at 0.25 h [7]: 4.28 µM; concentration at 0.25 h [8]: 3.65 µM; concentration at 0.5 h [7]: 2.54 µM; concentration at 0.5 h [8]: 1.93 µM; concentration at 1 h [7]: 0.951 µM; concentration at 1 h [8]: 0.847 µM; concentration at 2 h [7]: 0.294 µM; concentration at 2 h [8]: 0.252 µM; concentration at 4 h [8]: 0.154 µM; concentration at 8 h [7]: 0.048 µM; concentration at 8 h [8]: 0.047 µM; concentration at 4 h [9]: 16.9 µM; concentration at 4 h [10]: 14 µM; concentration at 8 h [9]: 6.14 µM; concentration at 8 h [10]: 8.43 µM; concentration at 4 h [11]: 48.4 µM; concentration at 8 h (male, CD-1, mouse, in vivo, 20 mg/kg, Liver, 20 mg/kg IV, individual animals, read-out: Concentration (µM) from 20 mg/kg Dosing Liver): 15.1 µM; concentration at 8 h [11]: 19.2 µM; concentration at 4 h [12]: 5.1 µM; concentration at 4 h [13]: 5.75 µM; concentration at 8 h [12]: 1.59 µM; concentration at 8 h [13]: 2.31 µM; concentration at 24 h [14]: 0.28 µM; concentration at 24 h [15]: 0.361 µM; concentration at 48 h [14]: 0.11 µM; concentration at 48 h [15]: 0.086 µM; Kp (male, CD-1, mouse, kidney, intravenous, 20 mg/kg, for the 2 dose levels (1, 20 mg/kg), read-out: Tissue-to-blood AUC ratio, kidney): 160 to 243; concentration at 24 h (male, CD-1, mouse, liver, intravenous, 20 mg/kg, Liver, 20 mg/kg IV, individual animals, read-out: Concentration (µM) from 20 mg/kg Dosing Liver): 14.3 µM; concentration at 24 h [16]: 10.8 µM; concentration at 48 h [16]: 1.9 µM; Kp (male, CD-1, mouse, liver, intravenous, for the 2 dose levels, read-out: Tissue-to-blood AUC ratio, liver): 50 to 127; concentration at 24 h [17]: 0.602 µM; concentration at 48 h [17]: 0.658 µM; Kp (male, CD-1, mouse, lung, intravenous, for the 2 dose levels, read-out: Tissue-to-blood AUC ratio, lung): 26 to 50; clearance (male, CD-1, mouse, whole blood, iv, CD-1 mice IV, blood, dose = c0): 15 to 20 mL/min/kg; Tmax (male, blood, kidney, liver, lung (per row, column Matrix), CD-1 mice IV): 0.083 h; Tmax (male, kidney, liver, lung, CD-1 mice IV): 4 h; Initial decrease of concentration in blood (mice IV 1 and 20 mg/kg, within initial 4 hours): > 90%
